Measurements as given in ChEMBL document CHEMBL1151757, “Synthesis, radiosynthesis, and biological evaluation of fluorine-18-labeled 2beta-carbo(fluoroalkoxy)-3beta-(3'-((Z)-2-haloethenyl)phenyl)nortropanes: candidate radioligands for in vivo imaging of the serotonin transporter with positron emission tomography” (J Med Chem, 2008).

Key:
[1] = Drug uptake in anesthetized cynomolgus monkey brain occipital lobe after 85 mins postinjection; type: ADME, organism-based, Macaca fascicularis; settings: in vivo
[2] = Ratio of drug uptake in pons to cerebellum in anesthetized cynomolgus monkey after 18.5 mins postinjection; type: ADME, organism-based, Macaca fascicularis; settings: in vivo
[3] = system: Thalamus; test: Drug uptake in anesthetized cynomolgus monkey brain thalamus after 2.5 mins postinjection; type: ADME, organism-based, Macaca fascicularis; design: unit not given here; settings: in vivo
[4] = system: Caudate; test: Drug uptake in anesthetized cynomolgus monkey brain caudate after 45 mins postinjection; type: ADME, organism-based, Macaca fascicularis, Caudate nucleus; settings: in vivo, 0.75 h
[5] = system: Thalamus; test: Drug uptake in anesthetized cynomolgus monkey brain thalamus after 85 mins postinjection; type: ADME, organism-based, Macaca fascicularis; design: unit not given here; settings: in vivo
[6] = system: Pons; test: Drug uptake in anesthetized cynomolgus monkey brain pons after 12.5 mins postinjection; type: ADME, organism-based, Macaca fascicularis; settings: in vivo
[7] = system: Caudate; test: Drug uptake in anesthetized cynomolgus monkey brain caudate after 185 mins postinjection; type: ADME, organism-based, Macaca fascicularis, Caudate nucleus; settings: in vivo
[8] = system: Midbrain; test: Drug uptake in anesthetized cynomolgus monkey brain midbrain after 175 mins postinjection; type: ADME, organism-based, Macaca fascicularis; settings: in vivo
[9] = system: Midbrain; test: Drug uptake in anesthetized cynomolgus monkey brain midbrain after 145 mins postinjection; type: ADME, organism-based, Macaca fascicularis; settings: in vivo
[10] = Drug uptake in anesthetized cynomolgus monkey brain occipital lobe after 0.5 mins postinjection; type: ADME, organism-based, Macaca fascicularis; settings: in vivo
[11] = Ratio of drug uptake in midbrain to cerebellum in anesthetized cynomolgus monkey after 145 mins postinjection; type: ADME, organism-based, Macaca fascicularis; settings: in vivo
[12] = Ratio of drug uptake in occipital lobe to cerebellum in anesthetized cynomolgus monkey after 105 mins postinjection; type: ADME, organism-based, Macaca fascicularis; settings: in vivo, 1.75 h
[13] = system: Caudate; test: Drug uptake in anesthetized cynomolgus monkey brain caudate after 6.5 mins postinjection; type: ADME, organism-based, Macaca fascicularis, Caudate nucleus; settings: in vivo
[14] = Ratio of drug uptake in occipital lobe to cerebellum in anesthetized cynomolgus monkey after 185 mins postinjection; type: ADME, organism-based, Macaca fascicularis; settings: in vivo
[15] = Drug uptake in anesthetized cynomolgus monkey brain cerebellum after 3.5 mins postinjection; type: ADME, organism-based, Macaca fascicularis; settings: in vivo
[16] = Ratio of drug uptake in midbrain to cerebellum in anesthetized cynomolgus monkey after 235 mins postinjection; type: ADME, organism-based, Macaca fascicularis; settings: in vivo
[17] = system: Putamen; test: Drug uptake in anesthetized cynomolgus monkey brain putamen after 195 mins postinjection; type: ADME, organism-based, Macaca fascicularis; settings: in vivo, 3.25 h
[18] = Drug uptake in anesthetized cynomolgus monkey brain frontal lobe after 225 mins postinjection; type: ADME, organism-based, Macaca fascicularis; settings: in vivo, 3.75 h
[19] = system: Medulla; test: Drug uptake in anesthetized cynomolgus monkey brain medulla after 175 mins postinjection; type: ADME, organism-based, Macaca fascicularis; settings: in vivo
[20] = Ratio of drug uptake in thalamus to cerebellum in anesthetized cynomolgus monkey after 95 mins postinjection; type: ADME, organism-based, Macaca fascicularis; settings: in vivo
[21] = system: Putamen; test: Drug uptake in anesthetized cynomolgus monkey brain putamen after 4.5 mins postinjection; type: ADME, organism-based, Macaca fascicularis; design: unit not given here; settings: in vivo, 0.075 h
[22] = system: Medulla; test: Drug uptake in anesthetized cynomolgus monkey brain medulla after 18.5 mins postinjection; type: ADME, organism-based, Macaca fascicularis; settings: in vivo
[23] = Ratio of drug uptake in occipital lobe to cerebellum in anesthetized cynomolgus monkey after 115 mins postinjection; type: ADME, organism-based, Macaca fascicularis; settings: in vivo
[24] = system: Pons; test: Drug uptake in anesthetized cynomolgus monkey brain pons after 155 mins postinjection; type: ADME, organism-based, Macaca fascicularis; settings: in vivo
[25] = system: Caudate; test: Drug uptake in anesthetized cynomolgus monkey brain caudate after 18.5 mins postinjection; type: ADME, organism-based, Macaca fascicularis, Caudate nucleus; settings: in vivo
[26] = system: Medulla; test: Drug uptake in anesthetized cynomolgus monkey brain medulla after 2.5 mins postinjection; type: ADME, organism-based, Macaca fascicularis; settings: in vivo
[27] = Ratio of drug uptake in midbrain to cerebellum in anesthetized cynomolgus monkey after 135 mins postinjection; type: ADME, organism-based, Macaca fascicularis; settings: in vivo, 2.25 h
[28] = system: Caudate; test: Drug uptake in anesthetized cynomolgus monkey brain caudate after 115 mins postinjection; type: ADME, organism-based, Macaca fascicularis, Caudate nucleus; settings: in vivo
[29] = Drug uptake in anesthetized cynomolgus monkey brain cerebellum after 135 mins postinjection; type: ADME, organism-based, Macaca fascicularis; settings: in vivo, 2.25 h
[30] = Drug uptake in anesthetized cynomolgus monkey brain frontal lobe after 6.5 mins postinjection; type: ADME, organism-based, Macaca fascicularis; settings: in vivo
[31] = Drug uptake in anesthetized cynomolgus monkey brain occipital lobe after 3.5 mins postinjection; type: ADME, organism-based, Macaca fascicularis; settings: in vivo
[32] = Ratio of drug uptake in midbrain to cerebellum in anesthetized cynomolgus monkey after 22.5 mins postinjection; type: ADME, organism-based, Macaca fascicularis; settings: in vivo, 0.375 h
[33] = Ratio of drug uptake in occipital lobe to cerebellum in anesthetized cynomolgus monkey after 125 mins postinjection; type: ADME, organism-based, Macaca fascicularis; settings: in vivo
[34] = system: Thalamus; test: Drug uptake in anesthetized cynomolgus monkey brain thalamus after 115 mins postinjection; type: ADME, organism-based, Macaca fascicularis; design: unit not given here; settings: in vivo
[35] = Ratio of drug uptake in medulla to cerebellum in anesthetized cynomolgus monkey after 135 mins postinjection; type: ADME, organism-based, Macaca fascicularis; settings: in vivo, 2.25 h
[36] = Ratio of drug uptake in pons to cerebellum in anesthetized cynomolgus monkey after 6.5 mins postinjection; type: ADME, organism-based, Macaca fascicularis; settings: in vivo
[37] = system: Midbrain; test: Drug uptake in anesthetized cynomolgus monkey brain midbrain after 65 mins postinjection; type: ADME, organism-based, Macaca fascicularis; design: unit not given here; settings: in vivo
[38] = system: Medulla; test: Drug uptake in anesthetized cynomolgus monkey brain medulla after 205 mins postinjection; type: ADME, organism-based, Macaca fascicularis; settings: in vivo
[39] = system: Thalamus; test: Drug uptake in anesthetized cynomolgus monkey brain thalamus after 35 mins postinjection; type: ADME, organism-based, Macaca fascicularis; design: unit not given here; settings: in vivo
[40] = Drug uptake in anesthetized cynomolgus monkey brain cerebellum after 9.5 mins postinjection; type: ADME, organism-based, Macaca fascicularis; settings: in vivo
[41] = Drug uptake in anesthetized cynomolgus monkey brain cerebellum after 115 mins postinjection; type: ADME, organism-based, Macaca fascicularis; settings: in vivo
[42] = Drug uptake in anesthetized cynomolgus monkey brain frontal lobe after 4.5 mins postinjection; type: ADME, organism-based, Macaca fascicularis; settings: in vivo, 0.075 h
[43] = system: Putamen; test: Drug uptake in anesthetized cynomolgus monkey brain putamen after 27.5 mins postinjection; type: ADME, organism-based, Macaca fascicularis; design: unit not given here; settings: in vivo
[44] = system: Medulla; test: Drug uptake in anesthetized cynomolgus monkey brain medulla after 225 mins postinjection; type: ADME, organism-based, Macaca fascicularis; settings: in vivo, 3.75 h
[45] = Ratio of drug uptake in thalamus to cerebellum in anesthetized cynomolgus monkey after 195 mins postinjection; type: ADME, organism-based, Macaca fascicularis; settings: in vivo, 3.25 h
[46] = Ratio of drug uptake in midbrain to cerebellum in anesthetized cynomolgus monkey after 185 mins postinjection; type: ADME, organism-based, Macaca fascicularis; settings: in vivo
[47] = system: Medulla; test: Drug uptake in anesthetized cynomolgus monkey brain medulla after 185 mins postinjection; type: ADME, organism-based, Macaca fascicularis; settings: in vivo
[48] = Drug uptake in anesthetized cynomolgus monkey brain occipital lobe after 155 mins postinjection; type: ADME, organism-based, Macaca fascicularis; settings: in vivo
[49] = Drug uptake in anesthetized cynomolgus monkey brain frontal lobe after 85 mins postinjection; type: ADME, organism-based, Macaca fascicularis; settings: in vivo
[50] = Ratio of drug uptake in pons to cerebellum in anesthetized cynomolgus monkey after 185 mins postinjection; type: ADME, organism-based, Macaca fascicularis; settings: in vivo
[51] = Drug uptake in anesthetized cynomolgus monkey brain cerebellum after 215 mins postinjection; type: ADME, organism-based, Macaca fascicularis; settings: in vivo
[52] = Drug uptake in anesthetized cynomolgus monkey brain frontal lobe after 1.5 mins postinjection; type: ADME, organism-based, Macaca fascicularis; settings: in vivo, 0.025 h
[53] = Ratio of drug uptake in frontal lobe to cerebellum in anesthetized cynomolgus monkey after 135 mins postinjection; type: ADME, organism-based, Macaca fascicularis; settings: in vivo, 2.25 h
[54] = system: Thalamus; test: Drug uptake in anesthetized cynomolgus monkey brain thalamus after 125 mins postinjection; type: ADME, organism-based, Macaca fascicularis; design: unit not given here; settings: in vivo
[55] = Ratio of drug uptake in caudate to cerebellum in anesthetized cynomolgus monkey after 55 mins postinjection; type: ADME, organism-based, Macaca fascicularis; settings: in vivo
[56] = system: Midbrain; test: Drug uptake in anesthetized cynomolgus monkey brain midbrain after 1.5 mins postinjection; type: ADME, organism-based, Macaca fascicularis; design: unit not given here; settings: in vivo, 0.025 h
[57] = system: Medulla; test: Drug uptake in anesthetized cynomolgus monkey brain medulla after 45 mins postinjection; type: ADME, organism-based, Macaca fascicularis; settings: in vivo, 0.75 h
[58] = system: Caudate; test: Drug uptake in anesthetized cynomolgus monkey brain caudate after 12.5 mins postinjection; type: ADME, organism-based, Macaca fascicularis, Caudate nucleus; settings: in vivo
[59] = Drug uptake in anesthetized cynomolgus monkey brain frontal lobe after 75 mins postinjection; type: ADME, organism-based, Macaca fascicularis; settings: in vivo, 1.25 h
[60] = Drug uptake in anesthetized cynomolgus monkey brain occipital lobe after 195 mins postinjection; type: ADME, organism-based, Macaca fascicularis; settings: in vivo, 3.25 h
[61] = system: Putamen; test: Drug uptake in anesthetized cynomolgus monkey brain putamen after 18.5 mins postinjection; type: ADME, organism-based, Macaca fascicularis; design: unit not given here; settings: in vivo
[62] = system: Thalamus; test: Drug uptake in anesthetized cynomolgus monkey brain thalamus after 175 mins postinjection; type: ADME, organism-based, Macaca fascicularis; design: unit not given here; settings: in vivo
[63] = Drug uptake in anesthetized cynomolgus monkey brain frontal lobe after 235 mins postinjection; type: ADME, organism-based, Macaca fascicularis; settings: in vivo
[64] = system: Midbrain; test: Drug uptake in anesthetized cynomolgus monkey brain midbrain after 235 mins postinjection; type: ADME, organism-based, Macaca fascicularis; settings: in vivo
[65] = Ratio of drug uptake in pons to cerebellum in anesthetized cynomolgus monkey after 225 mins postinjection; type: ADME, organism-based, Macaca fascicularis; settings: in vivo, 3.75 h
[66] = Ratio of drug uptake in caudate to cerebellum in anesthetized cynomolgus monkey after 65 mins postinjection; type: ADME, organism-based, Macaca fascicularis; settings: in vivo
[67] = Ratio of drug uptake in pons to cerebellum in anesthetized cynomolgus monkey after 0.5 mins postinjection; type: ADME, organism-based, Macaca fascicularis; settings: in vivo

Work on `O=C(OCC[18F])C1C2CCC(CC1c1cccc(/C=C\Br)c1)N2` (configuration not stated) yielded a Drug uptake [1] of 3.31, a Ratio [2] of 1.1 and a Drug uptake [3] of 0.29. For the same compound, the Drug uptake [4] was 3.83, the Drug uptake [5] was 4.41 and the Drug uptake [6] was 3.52. The Drug uptake [7] was 3.28, the Drug uptake [8] was 4.13 and the Drug uptake [9] was 4.65. The Drug uptake [10] was 0.01, the Ratio [11] was 2 and the Ratio [12] was 1.1. For the same compound, the Drug uptake [13] was 1.92, the Ratio [14] was 1.3 and the Drug uptake [15] was 1.14. It also gave a Ratio [16] of 2.3, a Drug uptake [17] of 3.53 and a Drug uptake [18] of 1.88. The Drug uptake [19] was 3.62, the Ratio [20] was 1.4 and the Drug uptake [21] was 1.72. It also gave a Drug uptake [22] of 4.39, a Ratio [23] of 1.1 and a Drug uptake [24] of 3.92. For the same compound, the Drug uptake [25] was 2.8, the Drug uptake [26] was 0.61 and the Ratio [27] was 1.9. The Drug uptake [28] was 4.06, the Drug uptake [29] was 2.43 and the Drug uptake [30] was 1.75. The Drug uptake [31] was 0.64, the Ratio [32] was 1.1 and the Ratio [33] was 1.1. The Drug uptake [34] was 4.22, the Ratio [35] was 1.7 and the Ratio [36] was 1. It also gave a Drug uptake [37] of 5, a Drug uptake [38] of 3.14 and a Drug uptake [39] of 3.89. The Drug uptake [40] was 3.17, the Drug uptake [41] was 2.78 and the Drug uptake [42] was 1.02. For the same compound, the Drug uptake [43] was 4.67, the Drug uptake [44] was 2.67 and the Ratio [45] was 1.8. It also gave a Ratio [46] of 2.2, a Drug uptake [47] of 3.61 and a Drug uptake [48] of 2.67. It also gave a Drug uptake [49] of 2.88, a Ratio [50] of 1.9 and a Drug uptake [51] of 1.78. For the same compound, the Drug uptake [52] was 0.04, the Ratio [53] was 1.1 and the Drug uptake [54] was 4.15. The Ratio [55] was 1.1, the Drug uptake [56] was 0.08 and the Drug uptake [57] was 4.87. The Drug uptake [58] was 2.61, the Drug uptake [59] was 2.86 and the Drug uptake [60] was 2.02. The Drug uptake [61] was 4.37, the Drug uptake [62] was 3.36 and the Drug uptake [63] was 1.87. It also gave a Drug uptake [64] of 3.76, a Ratio [65] of 1.7 and a Ratio [66] of 1.2. It also gave a Ratio [67] of 3.8.
